{"source": "patent US9428520B2", "about": "“Daphne genkwa extracts, and pharmaceutical composition containing fractions of the extracts or compounds separated from the extracts as active ingredients for preventing or treating atopic dermatitis” (priority 2011, dated 2016)", "key": {"NC mouse": {"tested_on": "NC mouse", "experiment": "Atopy treatment effect in NC mouse model", "assay_type": "in vivo", "conditions": "local spreading on skin, FIG. 3", "description": "NC mouse is the mouse showing typical atopy symptom when it is raised in the conventional space. Genekwadapnin or yuanhuacine was spread locally on NC mouse starting to show atopy symptom, followed by observation of changes of atopy symptom."}, "A549 cells": {"tested_on": "A549 cells", "experiment": "RT-PCR of cytokine mRNA levels in A549 cells", "assay_type": "cell-based, human", "conditions": "2 ng, FIG. 2A", "description": "(§1) Human cell lines (A549, NK92, muDC, Jurkat) were cultured in a 37° C., 5% CO2 humidified incubator.\n(§2) RT-PCR was performed to investigate the changes of mRNA levels in relation to the inducement of IFN-γ, IL-2, and IL-12 in A549, NK92, muDC, and Jurkat cells cultured in <Example 2>. These cells were cultured in the presence of 2 ng of genekwadapnin or yuanhuacine for 12 hours.\n(§3) Phase II RT-PCR was performed with oligo-dT primer, reverse transcriptase, specific primer set, and Taq polymerase (Takara, Shiga, Japan). Total RNA was isolated according to the standard protocol. cDNA was synthesized by using Accusript High Fidelity 1st Strand cDNA Synthesis Kit (Stratagene) according to the manufacturer's instruction. 1 μl of the synthesized cDNA was used for PCR with 20 μl of reaction mixture containing 0.5 U ExTaq DNA polymerase, 1× buffer, 1 mM dNTP mix (Takara) and specific primer set. PCR amplification was performed using GeneAmp PCR system 2700 (Applied Biosystems, Foster city, CA, USA) as follows: predenaturation at 94° C. for 5 minutes, denaturation at 94° C. for 45 seconds, annealing at 56° C. for 45 seconds, polymerization at 72° C. for 1 minute, 25˜40 cycles from denaturation to polymerization, and final extension at 72° C. for 7 minutes. PCR primers shown in [Table 1] were designed by using Primer 3 program, which were purchased from Bioneer (Daejeon, Korea). At this time, GAPDH was used as the internal control.\n(§4) The PCR product was electrophoresed on 1.5% agarose gel, which was stained with ethidium bromide (EtBr) and then visualized by using Gel Doc 2000 UV trans-illuminator (Bio-Rad Laboratories, Hercules, Calif., […]). Analysis was performed with Quantity One software (Bio-Rad Laboratories)."}, "atopy patients": {"tested_on": "atopy patients", "experiment": "Atopy treatment effect in atopy patient", "assay_type": "in vivo, human", "conditions": "5 ug/ml spread on the skin, FIG. 5", "description": "After spreading genekwadapnin or yuanhuacine on the skin of atopy patients, atopy treatment effect of the compound was confirmed.\nParticularly, 5 ug/ml of genekwadapnin or yuanhuacine was spread on the skin of atopy patients, followed by observation for 5˜20 days. The treatment effect was confirmed by Medream Skin Clinic (Goejeong-dong, Seogu, Daejeon, Korea)."}, "Balb/C mouse": {"tested_on": "Balb/C mouse", "experiment": "Atopy treatment effect in DNCB atopy induced mouse model", "assay_type": "in vivo", "conditions": "score 10˜13 group with severe atopic symptoms, FIG. 4", "description": "DNCB, one of allergens, was spread on the shaved skin of a normal Balb/C mouse to induce atopy intentionally. Atopy symptoms varied from the dose of DNCB and the treatment period, which were classified into different score groups (score 4˜8 group and score 10˜13 group). In the mouse group (score 4˜8 group) which was treated with a lower dose of DNCB, atopic skin was recovered to normal skin within 24 hours from the treatment of genekwadapnin or yuanhuacine. […] At that time, the test was performed in duplicate with 10 mice each."}, "NK92 cells": {"tested_on": "NK92 cells", "experiment": "RT-PCR of cytokine mRNA levels in NK92 cells", "assay_type": "cell-based, human", "conditions": "2 ng, FIG. 2A", "description": "as §1\nParticularly, NK92 (human NK lymphoma), the IL-2 dependent NK cell line, was purchased from ATCC (American Type Culture Collection). The NK92 cell line was maintained in α-MEM (Life Technologies, Karlsruhe, Germany) supplemented with 20% FCS (HyClone, Logan, Utah), 2 mM […], 100 μg/ml penicillin, 100 μg/ml streptomycin (Life Technologies) and 100 U/ml IL-2 (Chiron, Emeryville, Calif.).\nas §2\nas §3, with “At this time, GAPDH was used as the internal control.” left out\nas §4"}, "PKC isotype": {"tested_on": "PKC isotype", "experiment": "Intracellular mechanism: phosphorylation level of PKC isotype in NK92 cells (western blot)", "assay_type": "cell-based, human", "conditions": "500 ng/ml, 12 hours, FIG. 6", "description": "To investigate the intracellular mechanism of genekwadapnin or yuanhuacine, the NK92 cells cultured in <Example 2> were treated with genekwadapnin or yuanhuacine at the concentration of 500 ng/ml. 12 hours later, phosphorylation level of PKC isotype was investigated by using antibodies. The quantity of protein used herein was confirmed by using GAPDH.\nParticularly, the cells treated with genekwadapnin or yuanhuacine were dissolved in ice by using cold SDS-lysis buffer [(50 mM HEPES, 150 mM NaCl, 0.2 mM EDTA, 0.5% NP-40, 0.1% SDS, 1 mM Na3VO4, 10 mM NaF, and complete Protein Inhibitor Cocktail (Roche)] for 30 minutes. The dissolved cell solution was spinned at the speed of 13,000 rpm for 30 minutes in a high-speed rotating machine to precipitate insoluble part and then water soluble part was separated. The separated cell aqueous solution was quantified, followed by electrophoresis using 10˜20% SDS-PAGE. Cellular protein separated on the gel was transcribed onto PVDF membrane (Millipore, Billerica, Mass., USA) at 100 V for 2 hours. To confirm PCK isotype phosphorylated in the cells, poly rabbit anti-PKD1, -phosphoPKD1 (Ser916), -phosphoPKDl (Ser744/748), -phosphoPKCα/βII, -phosphoPKCδ, -phosphoPKCθ, and -phosphoPKCζ/λ IgG (Cell signaling Technology, USA) (1:1000) were used as primary antibodies. As a secondary antibody, horseradish peroxidase peroxidase-conjugated goat anti-rabbit IgG (Santa Cruz Biotechnology, USA) (1:3000) was treated at room temperature for 60 minutes. To confirm the equal amount of cellular protein, poly rabbit anti-GAPDH IgG (Santa Cruz Biotechnology, Pasadena, Calif., USA) was used."}, "[1]": {"conditions": "NK92 cells (printed NR92), 12 hours after treatment"}}}
{"compound": "C=C(C)[C@@]12OC3(/C=C/C=C/CCCCC)O[C@@H]1[C@@H]1[C@@H]4O[C@]4(CO)[C@@H](O)[C@]4(O)C(=O)C(C)=C[C@H]4[C@@]1(O3)[C@H](C)[C@H]2OC(=O)c1ccccc1", "note": "[yuanhuacine]", "values": [{"measurement": "atopy symptom on the back where the compound was spread", "setting": "NC mouse", "result": "significantly reduced"}, {"measurement": "skin biopsy: distribution of inflammatory cells, phenotype of the treated area", "setting": "NC mouse", "result": "almost normal phenotype"}, {"measurement": "transcript of type II cytokine, IL-4", "setting": "A549 cells; 12 hours after treatment", "result": "not induced"}, {"measurement": "transcripts of Type I cytokines, IFN-γ, IL-2, and IL-12", "setting": "A549 cells; 12 hours after treatment", "result": "significantly increased"}, {"measurement": "transcripts of IL-15 and IL-18", "setting": "A549 cells; 12 hours", "result": "not controlled"}, {"measurement": "time until atopic skin was recovered to normal", "setting": "atopy patients; minor symptoms", "result": 5, "unit": "days"}, {"measurement": "time until atopic skin was recovered to normal", "setting": "atopy patients; severe symptoms", "result": 20, "unit": "days"}, {"measurement": "speed of recovery versus the control group", "setting": "Balb/C mouse", "result": "at least two times faster"}, {"measurement": "transcript of type II cytokine, IL-4", "setting": "NK92 cells; [1]", "result": "not induced"}, {"measurement": "transcripts of Type I cytokines, IFN-γ, IL-2, and IL-12", "setting": "NK92 cells; [1]", "result": "significantly increased"}, {"measurement": "transcripts of IL-15 and IL-18", "setting": "NK92 cells; NK92 cells, 12 hours", "result": "not controlled"}, {"measurement": "PKD1 level", "setting": "PKC isotype", "result": "not changed"}, {"measurement": "phosphorylation of other types of PKC isotype", "setting": "PKC isotype", "result": "not phosphorylated"}, {"measurement": "phosphorylation of serin residues (744th/748th, and 916th sites of PKD1 protein)", "setting": "PKC isotype", "result": "confirmed"}]}
